Patent publication US6451335B1, “Formulations and methods for providing prolonged local anesthesia” (Euro-Celtique S.A., priority 1998, dated 2002)
Where a name gives a salt, the structure may show the parent alone.

What was measured:
rat sciatic nerve [1] = assay: Duration of anesthesia of bupivacaine microspheres (LAB) with co-injected additives, hotplate foot withdrawal; type: in vivo; settings: LAB 150 mg/kg perineural
Description: In this example, a large number of pharmaceutical agents were tested for activity in augmenting the duration of local anesthetic activity. Bupivacaine-containing microspheres at about 75% loading, by weight, were injected perineurally into rat sciatic nerve at a dose of 150 mg/kg (weight microspheres/weight rat) to dose of approximately 50 mg/nerve. For the injections, needle placement adjacent to the target nerve was optimized by intermittent electrical e stimulation of the target nerve (via the injection needle) with low amplitude current to produce limb flexion. For the injections, the microspheres were suspended in a carrier vehicle suitable for injection. While any pharmaceutically acceptable carrier vehicle is acceptable, for these experiments the carrier vehicle was 1% sodium carboxymethylcellulose and 1% Tween 80 in water.
Compounds to be tested were co-injected with bupivacaine containing microspheres (i.e., mixed as additives into the carrier vehicle) in a range of concentrations. Results are expressed as percent increase in duration relative to non-augmented durations that were obtained in the same animal model.
The duration of anesthesia was measured by the hotplate foot withdrawal method described above in Example 10 and refers to the time necessary for the animal to recover from maximal nerve latency (12 sec) to a latency of 7 seconds, approximately 50% recovery. The results are tabulated in Table 3 below as percent of control.

rat sciatic nerve [2] = assay: as above; type: in vivo; settings: read-out: Duration Anesthesia As Percent of Control
rat sciatic nerve [3] = assay: Rat sciatic nerve model, sensory testing (hotplate hindpaw withdrawal latency); type: in vivo; settings: for duration of sensory block: augmenting agent with bupivacaine-loaded microspheres vs contralateral side with bupivacaine-loaded microspheres without the agent
Description: (§1) The duration of local anesthesia induced by the bupivacaine-loaded microspheres, prepared from PLGA 65:35, with and without the co-administration of an augmenting agent, is tested in a rat sciatic nerve model for localized local anesthesia. […] The latency test determines the time, in seconds, before a rat withdraws its hindpaw from a hotplate set to a safe but uncomfortable temperature (56° C.).
(§2) Selected rats are injected with a solution containing a suspension of bupivacaine-loaded microspheres plus co-administered augmenting agent on one side and injected with a control on the contralateral side so that each rat serves as its own control. Each injection is adjacent to the sciatic nerve. The controls are bupivacaine-loaded microspheres without co-administered augmenting agent and microspheres without any bupivacaine.
As previously discussed, the degree of sensory local anesthesia is measured by determining the time or latency, in seconds, before each rat withdraws its hindpaw from a hotplate set to a safe but uncomfortable temperature. Maximum sciatic nerve sensory blockade is defined as having a latency of about 12 seconds or higher.
Twenty-four rats each receive an injection of bupivacaine-loaded controlled release microspheres into the left or right side, co-administered with a dextran containing injection solution. The contralateral side receive either bupivacaine-loaded microspheres at the same dose, or unloaded microspheres co-administered with a dextran injection solution.
Sensory hot plate latency is measured from the time of the injections until the latency declined to under 2 seconds.

rat sciatic nerve [4] = assay: Rat sciatic nerve model, motor testing (4-point scale); type: in vivo; settings: augmenting agent with bupivacaine-loaded microspheres vs contralateral side with bupivacaine-loaded microspheres without the agent
Description: as §1, §2
The degree of motor blockade is measured by scoring the appearance of the affected foot for the signs of loss of motor tone. The assessment is conducted as follows using a 4-point scale based on visual observation: (1) normal appearance, (2) intact dorsiflexion of foot with an impaired ability to splay toes when elevated by the tail, (3) toes and foot remained plantar flexed with no splaying ability, and (4) loss of dorsiflexion, flexion of toes, and impairment of gait.
Motor blockade is scored until the hind paws of motor blockades rats returned to a normal appearance.
Sensory and motor testing is conducted according to sections A and B, respectively, of EXAMPLE 10, above. Using the experimental protocol of section C of EXAMPLE 10, 24 rats are tested.
Sensory and motor testing is conducted according to sections A and B, respectively, of EXAMPLE 10, above.

[5] = Microdialysis of bupivacaine at i.m. injection site in quadriceps muscle; type: in vivo, Sprague-Dawley rat; settings: 3 mg i.m., quadriceps femoris
Description: To determine whether bupivacaine is released from EDLA in two phases in-vivo, bupivacaine HCl and EDLA was injected into the quadriceps muscles of rats in which microdialysis catheters had been previously placed. Bupivacaine HCl was injected i.m. into the quadriceps femoris of a Sprague-Dawley rat around the area of a microdialysis catheter. […] This rapid escape is consistent with the very short duration of anesthetic action aqueous bupivacaine has in this model. Diffusion of bupivacaine, quantitated by HPLC, was from a single compartment that followed first order kinetics, k=0.25±0.04 min^−1. (SS=3.613). […] The first compartment was apparently identical to the mechanism of escape of soluble bupivacaine HCl, since the rate constant was essentially identical (k=0.22/minute). […] Calibration was determined in vivo by delivery of a 10 ug/ml solution of bupivacaine. […] Excellular bupivacaine was measured in the dialysate every 10 minutes. In vivo extracelluar concentration was determined from the dialysate concentration by factoring in the microdialysis probe recovery which had been previously determined. […]

superficial radial nerve = assay: Local anesthesia to pin prick after injection around the superficial radial nerve in normal volunteers; type: in vivo, humans; settings: n=6; EDLA 3 ml (37.5 mg total) or aqueous bupivacaine HCl 50 mg, single injection
Description: Finally, the two compartment release of bupivacaine from EDLA results in rapid onset and prolonged duration of local anesthesia in humans. Normal volunteers (n=6) received a single injection of 3 ml EDLA (37.5 mg total) or aqueous bupivacaine HCl (50 mg) around the superficial radial nerve. Onset of local anesthesia to pin prick over the anatomical snuff box was <3 hours with aqueous bupivacaine with duration of action 6-8 hours. Onset of local anesthesia with EDLA was <3 hours with duration of action 48-72 hours.

[6] = immediate release vasoconstrictor, at best; cited from earlier work

| Compound | Duration Anesthesia As Percent of Control (rat sciatic nerve [1]; % Additive Conc. 0.05) | Duration Anesthesia As Percent of Control (rat sciatic nerve [1]; % Additive Conc. 0.5) | also measured |
| --- | --- | --- | --- |
| O=C1NC(=O)C(c2ccccc2)(c2ccccc2)N1 [5,5-diphenylhydantoin] |  |  | Duration Anesthesia As Percent of Control (rat sciatic nerve [1]; % Additive Conc. 0.11): 152% of Control; Duration Anesthesia As Percent of Control (rat sciatic nerve [1]; % Additive Conc. 1.09): 138% of Control |
| C[C@]12CC[C@@H](O)C[C@@H]1CC[C@@H]1[C@@H]2C(=O)C[C@@]2(C)[C@H]1CC[C@]2(O)C(=O)CO [Allotetrahydrocortisone, allotetrahydrocortisone] | 100% of Control | 117% of Control |  |
| CC(=O)[C@H]1CC[C@H]2[C@@H]3CC[C@H]4C[C@H](O)CC[C@]4(C)[C@H]3C(=O)C[C@]12C [Alphaxalone] | 169% of Control | 123% of Control |  |
| Nc1ccncc1 [Aminopyridine (4-AP), Aminopyridine] | 77% of Control |  | Duration Anesthesia As Percent of Control (rat sciatic nerve [1]; % Additive Conc. 0.11): 92% of Control; Duration Anesthesia As Percent of Control (rat sciatic nerve [1]; % Additive Conc. 1.09): 131% of Control |
| Cc1c(N(C)C)c(=O)n(-c2ccccc2)n1C [Aminopyrine] | 146% of Control | 62% of Control |  |
| NC(=NCc1ccccc1)NC(=O)c1nc(Cl)c(N)nc1N [Benzamil] | 83% of Control | 154% of Control |  |
| Clc1cccc(Cl)c1N=C1NCCN1 [Clonidine] | 122% of Control | 71% of Control |  |
| COc1cc2c(c(OC)c1OC)-c1ccc(OC)c(=O)cc1[C@@H](NC(C)=O)CC2 [Colchicine] |  |  | Duration Anesthesia As Percent of Control (rat sciatic nerve [1]; % Additive Conc. 0.01): 104% of Control; Duration Anesthesia As Percent of Control (rat sciatic nerve [1]; % Additive Conc. 1.0): 277% of Control; Duration Anesthesia As Percent of Control (rat sciatic nerve [1]; % Additive Conc. 10): toxic; response vs control in vivo at 0.1 % (rat sciatic nerve [2]; % Additive Conc. 0.1, Placebo (in place of LAB)): 0%; response vs control in vivo at 10 % (rat sciatic nerve [2]; % Additive Conc. 10, no LAB): 0% |
| CN1C(=O)CN=C(c2ccccc2)c2cc(Cl)ccc21 [Diazepam] | 231% of Control | 203% of Control |  |
| CC1=NS(=O)(=O)c2cc(Cl)ccc2N1 [Diazoxide] | 138% of Control | 109% of Control |  |
| Nc1cc(N2CCCCC2)nc(N)[n+]1[O-] [Minoxidil] | 54% of Control | 218-265% of Control |  |
| C[C@@H]1O[C@@H](O[C@H]2C[C@@H](O)[C@]3(CO)[C@H]4[C@H](O)C[C@]5(C)[C@@H](C6=CC(=O)OC6)CC[C@]5(O)[C@@H]4CC[C@]3(O)C2)[C@H](O)[C@H](O)[C@H]1O [Ouabain] | 154% of Control | 178% of Control |  |
| CC(=O)O[C@H]1C(=O)[C@@]2(C)[C@H]([C@H](OC(=O)c3ccccc3)[C@]3(O)C[C@H](OC(=O)[C@H](O)[C@@H](NC(=O)c4ccccc4)c4ccccc4)C(C)=C1C3(C)C)[C@]1(OC(C)=O)CO[C@@H]1C[C@@H]2O [Taxol] |  | 82% of Control | Duration Anesthesia As Percent of Control (rat sciatic nerve [1]; % Additive Conc. 0.11): 104% of Control; Duration Anesthesia As Percent of Control (rat sciatic nerve [1]; % Additive Conc. 1.09): 108% of Control |
| CC[N+](CC)(CC)CC [Tetraethylammonium] | 95% of Control | 123% of Control |  |
| COc1ccc2c(c1)CC[C@@H]1[C@@H]2CC[C@]2(C)[C@@H](NCCCCCCN3C(=O)C=CC3=O)CC[C@@H]12 [U-73, 122, 1[6-[[17-beta-3-methoxyestra-1,3,5(10)-triene-17-yl]amino]hexl]1-H-pyrrole-2,5-dione] | 106% of Control | 115% of Control |  |
| CCCC(CCC)C(=O)O [Valproic Acid] | 152% of Control | 138% of Control |  |
| CC[C@]1(O)C[C@@H]2CN(CCc3c([nH]c4ccccc34)[C@@](C(=O)OC)(c3cc4c(cc3OC)N(C)[C@H]3[C@@](O)(C(=O)OC)[C@H](OC(C)=O)[C@]5(CC)C=CCN6CC[C@]43[C@@H]65)C2)C1 [Vinblastine] | 158% of Control |  | Duration Anesthesia As Percent of Control (rat sciatic nerve [1]; % Additive Conc. 0.11): 37% of Control; Duration Anesthesia As Percent of Control (rat sciatic nerve [1]; % Additive Conc. 1.09): 40% of Control |
| CC(N)Cc1ccccc1 (centres unmarked) [amphetamine] |  |  | duration of sensory block (rat sciatic nerve [3]): significantly longer duration of sensory block; duration of motor block (rat sciatic nerve [4]): significantly increased duration of motor block |
| CCCCN1CCCCC1C(=O)Nc1c(C)cccc1C (centres unmarked) [bupivacaine HCl] |  |  | k, first order escape of bupivacaine from i.m. injection site (single compartment) [5]: 0.25 ± 0.04 min⁻¹; duration of action of local anesthesia (superficial radial nerve): 6 to 8 h |
| CN[C@@H](C)[C@H](O)c1ccccc1 [ephedrine] |  |  | duration of sensory block (rat sciatic nerve [3]): significantly longer duration of sensory block; duration of motor block (rat sciatic nerve [4]): significantly increased duration of motor block |
| CNC[C@H](O)c1ccc(O)c(O)c1 [epinephrine] |  |  | duration of sensory block (rat sciatic nerve [3]): significantly longer duration of sensory block; duration of motor block (rat sciatic nerve [4]): significantly increased duration of motor block; prolongation of local anesthetic activity [6]: ≤ 1 h |
| Dextran |  |  | duration of sensory block (rat sciatic nerve [3]): significantly longer duration of sensory block; sensory blockade (rat sciatic nerve [3]; unloaded microspheres with dextran alone): no sensory blockade; duration of motor block (rat sciatic nerve [4]): significantly increased duration of motor block; Duration Anesthesia As Percent of Control (rat sciatic nerve [1]; % Additive Conc. 3): 46-144% of Control |
